# Results as given in patent US6005116A, “Isoxazole compounds useful for the prophylaxis or treatment of nervous diseases” (Sankyo Company, Limited, priority 1996, dated 1999).
# Structures can show the parent of a compound that is named as a salt. Where two headings read alike, the source gives them in different places.
# Molecular target: T1, Type A-monoamine oxidase (Mus musculus, UniProt Q64133)
# T1 sequence (Q64133 1-526): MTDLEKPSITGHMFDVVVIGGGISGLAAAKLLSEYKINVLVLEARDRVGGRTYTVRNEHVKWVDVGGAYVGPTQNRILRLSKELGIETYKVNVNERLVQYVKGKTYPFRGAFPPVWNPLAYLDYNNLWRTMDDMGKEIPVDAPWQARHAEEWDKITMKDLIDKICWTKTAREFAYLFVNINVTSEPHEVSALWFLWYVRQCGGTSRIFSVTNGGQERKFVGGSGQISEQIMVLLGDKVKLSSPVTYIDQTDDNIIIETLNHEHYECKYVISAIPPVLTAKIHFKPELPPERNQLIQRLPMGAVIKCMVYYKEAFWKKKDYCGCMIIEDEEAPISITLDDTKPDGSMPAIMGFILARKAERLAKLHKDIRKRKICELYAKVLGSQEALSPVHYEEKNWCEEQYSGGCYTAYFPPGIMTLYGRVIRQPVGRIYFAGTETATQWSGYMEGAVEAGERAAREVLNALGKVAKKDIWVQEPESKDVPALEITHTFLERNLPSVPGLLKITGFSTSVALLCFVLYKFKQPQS
# Experiment: Type A-monoamine oxidase inhibitory activity
# Type: biochemical
# [1] = mouse brain crude mitochondria, substrate 14C-5-HT 100 μM, preincubated at 38° C. for 20 minutes, phosphate buffer pH 7.4, read-out: IC50 (concentration of the compound which decreases the 14C radioactivity of the control by 50%)
# Method: To 30 μl of a sample of mouse brain crude mitochondria (30 μg protein) were added 210 μl of a phosphate buffer (pH 7.4) and a test compound (dissolved in a mixture of 10% DMSO and water), and the resulting mixture was preincubated at 38° C. for 20 minutes. Subsequently, ^14 C-5-hydroxytriptamine (5-HT, final concentration: 100 μM) was added to the preincubated mixture to effect reaction at 38° C. for 20 minutes.
SMILES,IC50 [1],IC50
"NCCOc1cc(-c2ccccc2)on1 [Example 1, 3-(2-Aminoethoxy)-5-phenylisoxazole hydrochloride]",< 28 nM,
"NCCOc1cc(-c2ccc(Cl)cc2)on1 [Example 3, 3-(2-Aminoethoxy)-5-(4-chlorophenyl)isoxazole hydrochloride]",< 28 nM,
"NCCOc1noc(-c2cccnc2)c1Cl [Example 8, 3-(2-Aminoethoxy)-4-chloro-5-(3-pyridyl)isoxazole hydrochloride]",< 28 nM,
"CC(C)c1c(OCCN)noc1-c1ccco1 [Example 54, 3-(2-Aminoethoxy-5-(2-furyl)-4-isopropylisoxazole hydrochloride]",< 28 nM,
"CC(C)c1c(OCCN)noc1-c1ccc(Cl)cc1Cl [Example 57, 3-(2-Aminoethoxy)-5-(2,4-dichlorophenyl)-4-isopropylisoxazole hydrochloride]",,< 28 nM
"CC(C)c1c(OCCN)noc1-c1ccccc1Cl [Example 58, 3-(2-Aminoethoxy)-5-(2-chlorophenyl)-4-isopropylisoxazole hydrochloride]",< 28 nM,
"C=CCc1c(OCCN)noc1-c1ccccc1 [Example 60, 4-Allyl-3-(2-aminoethoxy)-5-phenylisoxazole hydrochloride]",< 28 nM,

# More lines, main results first:
IC50 [1],SMILES,IC50
< 28 nM,"NCCOc1noc(-c2ccccc2)c1Cl [Example 2, 3-(2-Aminoethoxy)-4-chloro-5-phenylisoxazole hydrochloride]",
< 28 nM,"CC(C)c1c(OCCN)noc1-c1ccccc1 [Example 4, 3-(2-Aminoethoxy)-4-isopropyl-5-phenylisoxazole hydrochloride]",
< 28 nM,"NCCOc1cc(-c2cccs2)on1 [Example 5, 3-(2-Aminoethoxy)-5-(2-thienyl)isoxazole hydrochloride]",
< 28 nM,"NCCOc1noc(-c2cccs2)c1Cl [Example 6, 3-(2-Aminoethoxy)-4-chloro-5-(2-thienyl)isoxazole hydrochloride]",
< 28 nM,"NCCOc1cc(-c2cccnc2)on1 [Example 7, 3-(2-Aminoethoxy)-5-(3-pyridyl)isoxazole hydrochloride]",
< 28 nM,"CC(C)c1c(OCCN)noc1-c1ccc(Cl)cc1 [Example 59, 3-(2-Aminoethoxy)-5-(4-chlorophenyl)-4-isopropylisoxazole hydrochloride]",
< 28 nM,"CC(C)Cc1c(OCCN)noc1-c1ccccc1 [Example 62, 3-(2-Aminoethoxy)-4-isobutyl-5-phenylisoxazole hydrochloride]",
< 28 nM,"CC(C)c1c(OCCN)noc1-c1cccs1 [Example 67, 3-(2-Aminoethoxy)-4-isopropyl-5-(2-thienyl)isoxazole hydrochloride]",
